Source: patent US20250059205A1, “Heterocyclic Compounds and Methods of Use” (AMGEN INC., priority 2021, published 2025)
Read-outs that look alike come from different tables or passages of the source.

Key:
[1] = target: His-tagged KRAS G12D protein (Homo sapiens, UniProt P01116, G12D); test: KRAS G12D TR-FRET Assay; type: binding
[2] = target: GDP-bound KRAS protein (aa 1-169), containing both G12D and C118A amino acid substitutions (Homo sapiens, UniProt P01116, C118A/G12D); test: KRAS G12D Coupled Nucleotide Exchange Assay; type: biochemical; details: 2 h compound pre-incubation
Chain of GDP-bound KRAS protein (aa 1-169), containing both G12D and C118A amino acid substitutions (P01116 1-169 isoform P01116-2 G12D/C118A): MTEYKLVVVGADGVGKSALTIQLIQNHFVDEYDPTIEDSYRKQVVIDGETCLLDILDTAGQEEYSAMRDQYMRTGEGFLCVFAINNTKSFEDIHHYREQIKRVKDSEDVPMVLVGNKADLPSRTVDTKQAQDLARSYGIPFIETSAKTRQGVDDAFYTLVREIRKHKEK
Protocol: Following compound pre-incubation, purified SOS protein (aa 564-1049) and GTP (Roche 10106399001) were added to the assay wells and incubated for an additional 30 min. […] The assay plates were then read on a PerkinElmer EnVision Multilabel Reader, using AlphaScreen® technology, and data were analyzed using a 4-parameter logistic model to calculate IC50 values.

[3] = test system: Phosphorylation of ERK1/2 in A-427 cells; test: Phospho-ERK1/2 MSD Assay (A-427 cells); type: cell-based; details: 2 h treatment, read-out: p-ERK (A427 cells) IC50
In short: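 ERK1/2 phosphorylation measured by Meso Scale whole-cell lysate assay after A-427 cells were exposed to a titration of compound for 2 h at 37 °C.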

[4] = test system: Phosphorylation of ERK1/2 in AsPC-1 cells; test: Phospho-ERK1/2 MSD Assay (AsPC-1 cells); type: cell-based; details: 2 hours treatment, read-out: p-ERK (AsPC-1 cells) IC50
In short: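 Read-out: MSD electrochemiluminescent detection of phosphorylated ERK1/2 in whole-cell lysates, fitted to a 4-parameter logistic curve for IC50. Prior to lysis, AsPC-1 cells (25,000 per well) received a 2 h compound dose-response at 37 °C.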

Chain of His-tagged KRAS G12D protein (P01116 1-188 isoform P01116-2 G12D): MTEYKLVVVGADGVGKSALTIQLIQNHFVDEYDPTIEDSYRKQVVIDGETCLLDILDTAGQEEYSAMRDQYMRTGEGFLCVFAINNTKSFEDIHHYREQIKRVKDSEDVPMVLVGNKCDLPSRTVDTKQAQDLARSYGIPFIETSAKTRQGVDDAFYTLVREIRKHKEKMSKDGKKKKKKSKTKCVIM

Compound | IC50 [1] [nM] | Avg 2 h Coupled Exchange IC50 [2] [nM] | IC50 ([3]; Homo sapiens, A-427, 2 h) [nM] | IC50 ([4]; Homo sapiens, ASPC1, 2 h) [nM] | IC50 [3] [nM] | IC50 [4] [nM]
Oc1cc(-c2c(Cl)cc3c(N4C[C@H]5CC[C@@H](C4)N5)nc(OC[C@@]45CCCN4C[C@H](F)C5)nc3c2F)c2ccccc2c1 [Example 52, 4-(4-((1R,5S)-3,8-diazabicyclo[3.2. 1]octan-3-yl)-6-chloro-8-fluoro-2-(((2R,7aS)-2-fluorotetrahydro-1H-pyrrolizin-7a(5H)-yl)methoxy)quinazolin-7-yl)naphthalen-2-ol] | 3 | 3 | 41 | 107 | – | –
Fc1c(-c2cccc3cccc(Cl)c23)ccc2c(N3[C@@H]4CC[C@H]3CNC4)nc(OC[C@@]34CCCN3C[C@H](F)C4)nc12 [Example 24, 4-((1R,5S)-3,8-diazabicyclo[3.2. 1]octan-8-yl)-7-(8-chloronaphthalen-1-yl)-8-fluoro-2-(((2R,7aS)-2-fluorotetrahydro-1H-pyrrolizin-7a(5H)-yl)methoxy) quinazoline] | 31 | 16 | 3910 | 1390 | – | –
CCc1c(F)ccc2cc(O)cc(-c3c(F)cc4c(N5CC6CCC(C5)N6)nc(OCC56CCCN5C[C@H](F)C6)nc4c3F)c12 (atropisomer, axis not shown; (M)) [Example 232, (M)-4-(4-((1R,5S)-3,8-diazabicyclo[3.2.1]octan-3-yl)-6,8-difluoro-2-(((2R,7aS)-2-fluorotetrahydro-1H-pyrrolizin-7a(5H)-yl)methoxy)quinazolin-7-yl)-5-ethyl-6-fluoronaphthalen-2-ol] | 1 | 2 | 3 | 8 | – | –
CC(O)COc1nc(N2C[C@H]3CC[C@@H](C2)N3)c2cc(F)c(-c3cc(O)cc4ccccc34)c(F)c2n1 (stereo partly drawn) [Example 125, 4-(4-((1R,5S)-3,8-diazabicyclo[3.2.1]octan-3-yl)-6,8-difluoro-2-(2-hydroxypropoxy)quinazolin-7-yl)naphthalen-2-ol] | 114 | 39 | > 10000 | > 10000 | – | –
Cc1cc2[nH]ncc2c(-c2ccc3c(N4C[C@H]5CC[C@@H](C4)N5)nc(OC[C@@]45CCCN4C[C@H](F)C5)nc3c2)c1Cl [Example 39, 4-((1R,5S)-3,8-diazabicyclo[3.2. 1]octan-3-yl)-7-(5-chloro-6-methyl-1H-indazol-4-yl)-2-(((2R,7aS)-2-fluorotetrahydro-1H-pyrrolizin-7a(5H)-yl)methoxy) quinazoline] | 20 | 9 | 569 | 1890 | – | –
CCc1cccc2cccc(-c3cc4nc(OC[C@@]56CCCN5C[C@H](F)C6)nc(N5C[C@H]6CC[C@@H](C5)N6)c4cc3F)c12 [Example 72, 4-((1R,5S)-3,8-diazabicyclo[3.2. 1]octan-3-yl)-7-(8-ethylnaphthalen-1-yl)-6-fluoro-2-(((2R,7aS)-2-fluorotetrahydro-1H-pyrrolizin-7a(5H)-yl)methoxy) quinazoline] | 23 | 18 | 2680 | 2600 | – | –
CCc1c(F)ccc2cc(O)cc(-c3c(F)cc4c(N5C6CCC5C(=O)NC6)nc(OC[C@@]56CCCN5C[C@H](F)C6)nc4c3F)c12 (single isomer, unassigned) [Example 176] | 11 | 7 | – | – | 545 | 2650
Oc1cc(-c2c(F)cc3c(N4C[C@@H]5CC[C@H]4CN5)nc(OC[C@@]45CCCN4C[C@H](F)C5)nc3c2F)c2ccccc2c1 [Example 48, 4-(4-((1S,4S)-2,5-diazabicyclo[2.2. 2]octan-2-yl)-6,8-difluoro-2-(((2R,7aS)-2-fluorotetrahydro-1H-pyrrolizin-7a(5H)-yl)methoxy)quinazolin-7-yl)naphthalen-2-ol] | 4 | 4 | 43 | 157 | – | –
Oc1cc(-c2cc3nc(OC[C@@]45CCCN4C[C@H](F)C5)nc(N4C[C@H]5CC[C@@H](C4)N5)c3cc2F)c2c(F)c(F)ccc2c1 [Example 82, 4-(4-((1R,5S)-3,8-diazabicyclo[3.2. 1]octan-3-yl)-6-fluoro-2-(((2R,7aS)-2-fluorotetrahydro-1H-pyrrolizin-7a(5H)-yl)methoxy)quinazolin-7-yl)-5,6-difluoronaphthalen-2-ol] | 2 | 2 | 42 | 138 | – | –
